Measurements from ChEMBL document CHEMBL1201862, “PubChem BioAssay data set” (2004).
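Dose response: 5 concentrations. Exposure: 48 h. Format: 96-well plates. Endpoint: linear interpolation; highest concentration if not reached. The concentration for 50% growth inhibition is given as GI50.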 Active and inactive are the calls of the source. Rule as the data show it: active = GI50 up to about 1.1 µM and inactive = higher.

Experiments:
Assay in all cases: DTP human tumour cell line panel, 48 h
[1] = system: MDA-MB-231
[2] = system: DU-145
[3] = system: MDA-MB-435
[4] = system: Hs-578T
[5] = system: SNB-78
[6] = system: HOP-18
[7] = system: LXFL 529
[8] = system: RXF 631

| Compound | GI50 [1] | GI50 [2] | GI50 [3] | GI50 [4] | GI50 [5] | GI50 [6] | GI50 [7] | GI50 [8] |
| --- | --- | --- | --- | --- | --- | --- | --- | --- |
| CCN1c2ccccc2NC(=S)c2c(-c3ccccc3)n[nH]c21 | 19.3 µM (inactive) | 39.9 µM (inactive) | 18.4 µM (inactive) | 75.5 µM (inactive) | – | – | – | – |
| CCOP(=O)(COCCn1nc(Br)c(=O)[nH]c1=O)OCC | > 100 µM (inactive) | > 100 µM (inactive) | > 100 µM (inactive) | > 100 µM (inactive) | – | – | – | – |
| O=S(=O)(c1ccccc1)C1CC(c2nc3ccccc3[nH]2)=NO1 (centres undefined) | > 100 µM (inactive) | > 100 µM (inactive) | 72.3 µM (inactive) | > 100 µM (inactive) | – | – | – | – |
| O=C(O)c1cn2c3c(cc(N4CCN(CCO)CC4)cc3c1=O)SCC2 | – | – | – | – | > 79.8 µM (inactive) | > 79.3 µM (inactive) | – | – |
| C=C1C(=O)OC2/C=C(\C(=O)O)CC/C=C(\C)CC(OC(=O)/C=C(\C)CC)C12 (centres undefined) | – | – | – | – | 23 µM (inactive) | 21.7 µM (inactive) | 16.9 µM (inactive) | – |
| OC1CCSc2ccccc21 (centres undefined) | – | – | – | – | – | > 100 µM (inactive) | > 100 µM (inactive) | – |
| COc1cc(C2S/C(=C/c3ccccc3)C(=O)N2c2cccc(NC(C)=O)c2)cc(OC)c1OC (centres undefined) | 13.9 µM (inactive) | – | 18.3 µM (inactive) | 15.3 µM (inactive) | – | – | – | – |
| OC(c1cccnc1Cl)c1nc2ccccc2c2ccnc(Cl)c12 (centres undefined) | 7.82 µM (inactive) | 23 µM (inactive) | 0.628 µM (active) | 2.72 µM (inactive) | – | – | – | – |
| Cc1ccc(C2=C(C#N)C(N)OC3=C2COc2ccccc23)cc1 (centres undefined) | 23.7 µM (inactive) | 17.6 µM (inactive) | 51.9 µM (inactive) | – | – | – | – | – |
| NNC(N)Nc1ccccc1 (centres undefined) | > 100 µM (inactive) | > 100 µM (inactive) | > 100 µM (inactive) | > 100 µM (inactive) | – | – | – | – |
| COc1cc(O)c2c(c1)C(=O)c1cc3c(c(O)c1C2=O)C(OC1OC(C)C(O)C(O)C1OC)C(OC)C(C)(O)C3=O (centres undefined) | – | – | – | – | 3.76 µM (inactive) | 5.16 µM (inactive) | – | – |
| CN1C[C@H]2[C@@H](C1=O)[C@H](c1ccc([N+](=O)[O-])cc1)ON2C | > 100 µM (inactive) | > 100 µM (inactive) | > 100 µM (inactive) | > 100 µM (inactive) | – | – | – | – |
| CC(=O)OC[C@H]1[C@@H]2C(CC[C@]13CO3)OC(=O)CC(C)[C@]2(C)CCc1ccoc1 (some centres undefined) | > 100 µM (inactive) | > 100 µM (inactive) | > 100 µM (inactive) | > 100 µM (inactive) | – | – | – | – |
| Cc1ccc(C)c(NC(=O)C(=O)C(C(=O)c2ccc3ccccc3c2)C2OC(=O)c3ccccc32)c1 (centres undefined) | – | – | – | – | 17.9 µM (inactive) | – | 7.59 µM (inactive) | 16.1 µM (inactive) |
| O=Cc1c(Cn2ccnc2)c2cc([N+](=O)[O-])ccc2n1Cc1ccccc1 | – | – | – | – | > 72.4 µM (inactive) | > 25.8 µM (inactive) | – | – |
| Cc1cccc(C(O)c2ccccn2)c1O (centres undefined) | > 100 µM (inactive) | > 100 µM (inactive) | > 100 µM (inactive) | > 100 µM (inactive) | – | – | – | – |
| O=C(Nc1ccc(Cl)cc1)C(=O)C(C(=O)c1ccccc1-c1ccccc1)C1OC(=O)c2ccccc21 (centres undefined) | – | – | – | – | > 100 µM (inactive) | – | 16 µM (inactive) | – |
